The results in this text go back to patent US20170002057A1, “COMPOSITIONS CONTAINING FUSION PROTEIN OF ALBUMIN AND ANALOGS THEREOF, METHODS FOR MAKING AND USING THE SAME” (NAL PHARMACEUTICAL GROUP LIMITED, priority 2015, published 2017).

Data set [1] can be described thus: In vivo pharmacokinetic profile in rat after IV injection (ELISA). As for the experimental part: The rat was restrained manually at the designated time points, approximately 300 μL of blood sample was collected via jugular vein into EDTA-K2 tubes and subsequently centrifuged at 4° C. and 1500 g for 10 min to obtain plasma samples.
Standard curve was prepared by the following procedure. Duplicate standard points were prepared by serially diluting Free SST Stock (1 mg/mL) with diluent buffer to produce 5, 2.5, 1.25, 0.625, 0.313, 0.156, 0.078 and 0.039 ng/mL solutions.
Standard curve was prepared by the following procedure. Duplicate standard points were prepared by serially diluting SST fusion protein (2.42 mg/mL) with pooled rat plasma to produce 225, 112.5, 56.2, 28.1, 14.1, 7.03, 3.51 and 1.76 ng/mL solutions.
ELISA assay has been performed as described in Example 5-3.

In data set [2] the target is human somatostatin sst2 receptor (human) (UniProt P30874). Briefly: cell-based or functional assay.
UniProt P30874, sequence (P30874 whole entry, the tested form may be a part): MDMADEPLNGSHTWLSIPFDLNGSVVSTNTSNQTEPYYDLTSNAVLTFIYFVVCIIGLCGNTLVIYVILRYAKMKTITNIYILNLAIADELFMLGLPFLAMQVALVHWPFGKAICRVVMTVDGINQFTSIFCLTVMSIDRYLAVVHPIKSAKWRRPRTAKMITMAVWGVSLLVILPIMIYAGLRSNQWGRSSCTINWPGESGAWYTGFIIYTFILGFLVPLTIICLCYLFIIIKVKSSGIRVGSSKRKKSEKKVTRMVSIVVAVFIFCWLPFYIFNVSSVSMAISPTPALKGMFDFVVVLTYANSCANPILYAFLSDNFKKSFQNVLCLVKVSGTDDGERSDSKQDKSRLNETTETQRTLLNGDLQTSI
Where [3] appears, read: rat, intravenous, SST 0.02 mg/kg, SST fusion protein 27.1 mg/kg.

Consider `C[C@H](N)C(=O)NCC(=O)N[C@H]1CSSC[C@@H](C(=O)O)NC(=O)[C@H](CO)NC(=O)[C@H]([C@@H](C)O)NC(=O)[C@H](Cc2ccccc2)NC(=O)[C@H]([C@@H](C)O)NC(=O)[C@H](CCCCN)NC(=O)[C@H](Cc2c[nH]c3ccccc23)NC(=O)[C@H](Cc2ccccc2)NC(=O)[C@H](Cc2ccccc2)NC(=O)[C@H](CC(N)=O)NC(=O)[C@H](CCCCN)NC1=O` [Free SST], for which the “clinical signs after injection” value in data set [1] (male Sprague Dawley rats, tail vein injection, SST 0.02 mg/kg, SST fusion protein 27.1 mg/kg) was “no negative clinical signs were observed”. Further, the level at 1 min in data set [1] (male, Sprague Dawley, in vivo, rat, IV 0.02 mg/kg, sampling time 1 min, read-out: Plasma SST concentration, Mean) came to 7.13 ng/mL. The level at 2 min in data set [1] (male, Sprague Dawley, in vivo, rat, IV 0.02 mg/kg, sampling time 2 min, read-out: Plasma SST concentration, Mean) is 4.95 ng/mL. In data set [1] (male, Sprague Dawley, in vivo, rat, IV 0.02 mg/kg, sampling time 4 min, read-out: Plasma SST concentration, Mean), the level at 4 min stood at 4.3 ng/mL. In data set [1] (male, Sprague Dawley, in vivo, rat, IV 0.02 mg/kg, sampling time 6 min, read-out: Plasma SST concentration, Mean), the level at 0.1 h turned out to be 1.07 ng/mL. Further, the level at 8 min in data set [1] (male, Sprague Dawley, in vivo, rat, IV 0.02 mg/kg, sampling time 8 min, read-out: Plasma SST concentration, Mean) came to 2.95 ng/mL. For the same compound, the AUC(0-inf) in data set [1] (male, Sprague Dawley, in vivo, rat, intravenous, SST 0.02 mg/kg, SST fusion protein 27.1 mg/kg, read-out: AUC0-inf, Mean (converted)) was 0.73 ng·h/mL. Besides, the AUC(0-t) in data set [1] (male, Sprague Dawley, in vivo, rat, intravenous, SST 0.02 mg/kg, SST fusion protein 27.1 mg/kg, read-out: AUC0-t, Mean (converted)) was 0.483 ng·h/mL. For the same compound, the clearance in data set [1] (male, Sprague Dawley, in vivo, rat, intravenous, SST 0.02 mg/kg, SST fusion protein 27.1 mg/kg, read-out: CL, Mean) turned out to be 510 mL/min/kg. Also, the Vd in data set [1] (male, Sprague Dawley, in vivo, rat, intravenous, SST 0.02 mg/kg, SST fusion protein 27.1 mg/kg, read-out: Vdss, Mean) stood at 2.19 L/kg. For the same compound, the “Plasma SST concentration, Mean” value in data set [1] (rat, IV 0.02 mg/kg, sampling time 0 min) is reported as 0 ng/mL. In addition, in data set [1] (setting [3]), the “AUMC0-inf, Mean” value is reported as 173 mg · h^2/mL; the “AUMC0-t, Mean” value stood at 55.9 mg · h^2/mL; the “MRTIV, Mean” value was 4.1 h.
In data set [2], Octreotide (peptide) had an EC50 values of the inhibition of cAMP production of 0.041 nM.
